Among the data in US9433214B2, “Active compounds combination containing fluopyram Bacillus and biologically control agent” (BAYER INTELLECTUAL PROPERTY GMBH, priority 2012, dated 2016) are gall reduction efficacy values, retold here.

The subject of the assay is Meloidogyne incognita. The assay can be described thus: Meloidogyne incognita test (MELGIN): gall formation on salad seedlings in sand. It is filed as in vivo. As to conditions: 504 h, eggs and larvae of Meloidogyne incognita, salad seeds in sand, 100% = no galls, read-out: Mortality in % after 21 d. How it is done: Meloidogyne incognita—Test (MELGIN)
Solvent: 125.0 parts by weight of acetone
To produce a suitable preparation of active compound, 1 part by weight of active compound is mixed with the stated amount of solvent, and the concentrate is diluted with water to the desired concentration. The preparation of the bacteria, fungi or yeast products contains 10^9-10^10 spores/g or cells/g. To produce a suitable preparation of a biological suspension the cells or spores are diluted with emulsifier-containing water to the desired concentration.
Vessels are filled with sand, a solution of the active ingredient, a suspension containing eggs and larvae of Meloidogyne incognita and salad seeds. The salad seeds germinate and the seedlings grow. Galls develop in the roots.
After the specified period of time the nematicidal activity is determined on the basis of the percentage of gall formation. When Meloidogyne incognita attacks roots of plants, it deforms the normal root cells and establishes giant cells and consequently the attacked roots form galls. 100% means that no galls were found; 0% means that the number of galls found on the roots of the treated plants was equal to that in untreated control plants.

Structures are written as SMILES.

On to `O=C(NCCc1ncc(C(F)(F)F)cc1Cl)c1ccccc1C(F)(F)F` [Fluopyram], for which the gall reduction efficacy at 0.0005 ppm was 0%.
